# Test results published in patent US20200016159A1, “N3-CYCLICALLY SUBSTITUTED THIENOURACILS AND USE THEREOF” (Bayer Aktiengesellschaft, priority 2016, published 2020).
# Target: T1, human adenosine A2b receptor (Homo sapiens, UniProt P29275)
# T1 sequence (P29275 1-332): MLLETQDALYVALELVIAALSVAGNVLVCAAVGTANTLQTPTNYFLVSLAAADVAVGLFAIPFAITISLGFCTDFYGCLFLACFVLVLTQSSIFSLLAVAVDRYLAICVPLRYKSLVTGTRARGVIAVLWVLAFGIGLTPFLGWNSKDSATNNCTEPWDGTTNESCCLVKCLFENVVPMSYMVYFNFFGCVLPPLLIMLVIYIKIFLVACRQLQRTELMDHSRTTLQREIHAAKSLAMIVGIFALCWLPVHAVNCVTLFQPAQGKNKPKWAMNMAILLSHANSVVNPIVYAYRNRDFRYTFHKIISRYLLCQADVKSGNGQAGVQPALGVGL
# Assay: Cellular in vitro reporter gene test for A2b receptor activity (antagonism of NECA)
# Format: cell-based
# Parameters: expressed in transfected cells; host or cells: CHO-K1 (Chinese hamster ovary) with CRE-luciferase reporter
# Conditions: recombinant CHO-K1 cells, CRE-luciferase reporter, co-incubation with EC50 concentration of NECA, 3 hours
# Outline: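 CHO-K1 cells expressing recombinant human A2b receptor plus a CRE-driven firefly luciferase reporter. Compounds co-incubated with NECA at its same-day EC50 concentration; luminescence read 3 hours after NECA addition. IC50 values, sometimes means of several determinations rounded to two significant figures.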
row,IC50 [nM],SMILES
1,54,"CCc1c(CN2CCNC2=O)sc2c1c(=O)n(C1(C)CC1)c(=O)n2CCC(F)(F)F [Example 218, 5-Ethyl-3-(1-methylcyclopropyl)-6-[(2-oxoimidazolidin-1-yl)methyl]-1-(3,3,3-trifluoropropyl)thieno[2,3-d]pyrimidine-2,4(1H,3H)-dione]"
2,400,"CCc1c(CN2CCNC2=O)sc2c1c(=O)n(C1(C)CC1)c(=O)n2CCOC [Example 219, 5-Ethyl-1-(2-methoxyethyl)-3-(1-methylcyclopropyl)-6-[(2-oxoimidazolidin-1-yl)methyl]thieno[2,3-d]pyrimidine-2,4(1H,3H)-dione]"
3,33,"Cc1c(Cn2nc[nH]c2=O)sc2c1c(=O)n([C@H]1C[C@@H]1C)c(=O)n2C [Example 220, 1,5-Dimethyl-3-[(1S,2S)-2-methylcyclopropyl]-6-[(5-oxo-4,5-dihydro-1H-1,2,4-triazol-1-yl)methyl]thieno[2,3-d]pyrimidine-2,4(1H,3H)-dione]"
4,1.3,"CCCCn1c(=O)n([C@H]2C[C@@H]2C)c(=O)c2c(C)c(CN3CCNC3=O)sc21 [Example 230, 1-Butyl-5-methyl-3-[(1S,2S)-2-methylcyclopropyl]-6-[(2-oxoimidazolidin-1-yl)methyl]thieno[2,3-d]pyrimidine-2,4(1H,3H)-dione]"
5,1.2,"Cc1c(CN2CCNC2=O)sc2c1c(=O)n([C@H]1C[C@@H]1C)c(=O)n2CC1CCC1 [Example 248, 1-(Cyclobutylmethyl)-5-methyl-3-[(1S,2S)-2-methylcyclopropyl]-6-[(2-oxoimidazolidin-1-yl)methyl]thieno[2,3-d]pyrimidine-2,4(1H,3H)-dione]"
6,1.9,"Cc1c(CN2CCNC2=O)sc2c1c(=O)n([C@H]1C[C@@H]1C)c(=O)n2CC1CC1(F)F (stereo partly drawn) [Example 249, 1-[(2,2-Difluorocyclopropyl)methyl]-5-methyl-3-[(1S,2S)-2-methylcyclopropyl]-6-[(2-oxoimidazolidin-1-yl)methyl]thieno[2,3-d]pyrimidine-2,4(1H,3H)-dione]"
7,6.7,"Cc1c(CN2CCNC2=O)sc2c1c(=O)n([C@H]1C[C@@H]1C)c(=O)n2CC1CCC(F)(F)C1 (stereo partly drawn) [Example 255, 1-[(3,3-Difluorocyclopenty)methy]-5-methyethyl-3-[(S,2S)-2-methylcyclopropyl]-6-[(2-oxoimidazolidin-1-yl)methyl]thieno[2,3-d]pyrimidine-2,4(1H,3H)-dione]"
8,4.1,"Cc1c(CN2CCNC2=O)sc2c1c(=O)n([C@H]1C[C@@H]1C)c(=O)n2CC1CCO1 (stereo partly drawn) [Example 282, 5-Methyl-3-[(1S,2S)-2-methylcyclopropyl]-1-(oxetan-2-ylmethyl)-6-[(2-oxoimidazoliidin-1-yl)methyl]thieno[2,3-d]pyrimidine-2,4(1H,3H)-dione]"
9,4.1,"Cc1c(CN2CCNC2=O)sc2c1c(=O)n([C@H]1C[C@@H]1C)c(=O)n2CC1COC1 [Example 285, 5-Methyl-3-[(1S,2S)-2-methylcyclopropyl]-1-(oxetan-3-ylmethyl)-6-[(2-oxoimidazoliddin-1-yl)methyl]thieno[2,3-d]pyrimidine-2,4(1H,3H)-dione]"
10,17,"Cc1c(CN2CCNC2=O)sc2c1c(=O)n(C1CC1C)c(=O)n2C[C@H]1CCCO1 (stereo partly drawn) [Example 286, 5-Methyl-3-(2-methylcyclopropyl)-6-[(2-oxoimidazolidin-1-yl)methyl]-1-[(2R)-tetrahydrofuran-2-ylmethyl]thieno[2,3-d]pyrimidine-2,4(1H,3H)-dione]"
11,35,"Cc1c(CN2CCNC2=O)sc2c1c(=O)n(C1CC1C)c(=O)n2CC1CCOC1 (centres unmarked) [Example 289, 5-Methyl-3-(2-methylcyclopropyl)-6-[(2-oxoimidazolidin-1-yl)methyl]-1-(tetrahydrofuran-3-ylmethyl)thieno[2,3-d]pyrimidine-2,4(1H,3H)-dione]"
12,15,"Cc1c(Cn2[nH]ccc2=O)sc2c1c(=O)n(C1CCC1)c(=O)n2CCC(F)(F)F [Example 312, 3-Cyclobutyl-5-methyl-6-[(5-oxo-2,5-dihydro-1H-pyrazol-1-yl)methyl]-1-(3,3,3-trifluoropropyl)thieno[2,3-d]pyrimidine-2,4(1H,3H)-dione]"
13,93,"Cc1c(Cn2[nH]ccc2=O)sc2c1c(=O)n(C1CC(F)(F)C1)c(=O)n2CCC(F)(F)F [Example 313, 3-(3,3-Difluorocyclobutyl)-5-methyl-6-[(5-oxo-2,5-dihydro-1H-pyrazol-1-yl)methyl]-1-(3,3,3-trifluoropropyl)thieno[2,3-d]pyrimidine-2,4(1H,3H)-dione]"
14,49,"Cc1c(Cn2[nH]ccc2=O)sc2c1c(=O)n(C1CC(C)(C)C1)c(=O)n2CCC(F)(F)F [Example 314, 3-(3,3-Dimethylcyclobutyl)-5-methyl-6-[(5-oxo-2,5-dihydro-H-pyrazol-1-yl)methyl]-1-(3,3,3-trifluoropropyl)thieno[2,3-d]pyrimidine-2,4(1H,3H)-dione]"
15,25,"CCn1c(=O)n([C@H]2C[C@@H]2C)c(=O)c2c(C)c(Cn3nc[nH]c3=O)sc21 [Example 316, 1-Ethyl-5-methyl-3-[(1S,2S)-2-methylcyclopropyl]-6-[(5-oxo-4,5-dihydro-1H-1,2,4-triazol-1-yl)methyl]thieno[2,3-d]pyrimidine-2,4(1H,3H)-dione]"
16,19,"CCCn1c(=O)n([C@H]2C[C@@H]2C)c(=O)c2c(C)c(Cn3nc[nH]c3=O)sc21 [Example 317, 5-Methyl-3-[(1S,2S)-2-methylcyclopropyl]-6-[(5-oxo-4,5-dihydro-1H-1,2,4-triazol-1-yl)methyl]-1-propylthieno[2,3-d]pyrimidine-2,4(1H,3H)-dione]"
17,12,"CCCCn1c(=O)n([C@H]2C[C@@H]2C)c(=O)c2c(C)c(Cn3nc[nH]c3=O)sc21 [Example 318, 1-Butyl-5-methyl-3-[(1S,2S)-2-methylcyclopropyl]-6-[(5-oxo-4,5-dihydro-H-1,2,4-triazol-1-yl)methyl]thieno[2,3-d]pyrimidine-2,4(1H,3H)-dione]"
18,13,"Cc1c(Cn2nc[nH]c2=O)sc2c1c(=O)n([C@H]1C[C@@H]1C)c(=O)n2CC(F)F [Example 320, 1-(2,2-Difluoroethyl)-5-methyl-3-[(S,2S)-2-methylcyclopropyl]-6-[(5-oxo-4,5-dihydro-1H-1,2,4-triazol-1-yl)methyl]thieno[2,3-d]pyrimidine-2,4(1H,3H)-dione]"
19,17,"Cc1c(Cn2nc[nH]c2=O)sc2c1c(=O)n([C@H]1C[C@@H]1C)c(=O)n2CC(F)(F)F [Example 321, 5-Methyl-3-[(1S,2S)-2-methylcyclopropyl]-6-[(5-oxo-4,5-dihydro-1H-1,2,4-triazol-1-yl)methyl]-1-(2,2,2-trifluoroethyl)thieno[2,3-d]pyrimidine-2,4(1H, 3H)-dione]"
20,14,"Cc1c(Cn2nc[nH]c2=O)sc2c1c(=O)n([C@H]1C[C@@H]1C)c(=O)n2CCCF [Example 322, 1-(3-Fluoropropyl)-5-methyl-3-[(1S,2S)-2-methylcyclopropyl]-6-[(5-oxo-4,5-dihydro-H-1,2,4-triazol-1-yl)methyl]thieno[2,3-d]pyrimidine-2,4(1H,3H)-dione]"
21,3.1,"Cc1c(Cn2nc[nH]c2=O)sc2c1c(=O)n([C@H]1C[C@@H]1C)c(=O)n2CCC(F)(F)F [Example 323, 5-Methyl-3-[(1S,2S)-2-methylcyclopropyl]-6-[(5-oxo-4,5-dihydro-1H-1,2,4-triazol-1-yl)methyl]-1-(3,3,3-trifluoropropyl)thieno[2,3-d]pyrimidine-2,4(1H,3H)-dione]"
22,5.5,"Cc1c(Cn2nc[nH]c2=O)sc2c1c(=O)n([C@H]1C[C@@H]1C)c(=O)n2CCCC(F)(F)F [Example 324, 5-Methyl-3-[(1S,2S)-2-methylcyclopropyl]-6-[(5-oxo-4,5-dihydro-1H-1,2,4-triazol-1-yl)methyl]-1-(4,4,4-trifluorobutyl)thieno[2,3-d]pyrimidine-2,4(1H, 3H)-dione]"
23,43,"COCCn1c(=O)n([C@H]2C[C@@H]2C)c(=O)c2c(C)c(Cn3nc[nH]c3=O)sc21 [Example 325, 1-(2-Methoxyethyl)-5-methyl-3-[(1S,2S)-2-methylcyclopropyl]-6-[(5-oxo-4,5-dihydro-1H-1,2,4-triazol-1-yl)methyl]thieno[2,3-d]pyrimidine-2,4(1H,3H)-dione]"
24,17,"Cc1c(Cn2nc[nH]c2=O)sc2c1c(=O)n([C@H]1C[C@@H]1C)c(=O)n2CC1CC1(F)F (stereo partly drawn) [Example 326, 1-[(2,2-Difluorocyclopropyl)methyl]-5-methyl-3-[(1S,2S)-2-methylcyclopropyl]-6-[(5-oxo-4,5-dihydro-1H-1,2,4-triazol-1-yl)methyl]thieno[2,3-d]pyrimidine-2,4(1H,3H)-dione]"
25,8.5,"Cc1c(Cn2nc[nH]c2=O)sc2c1c(=O)n([C@H]1C[C@@H]1C)c(=O)n2CC1CCC1 [Example 327, 1-(Cyclobutylmethyl)-5-methyl-3-[(1S,2S)-2-methylcyclopropyl]-6-[(5-oxo-4,5-dihydro-1H-1,2,4-triazol-1-yl)methyl]thieno[2,3-d]pyrimidine-2,4(1H,3H)-dione]"
26,4.9,"Cc1c(Cn2nc[nH]c2=O)sc2c1c(=O)n([C@H]1C[C@@H]1C)c(=O)n2CC1CC(F)(F)C1 [Example 328, 1-[(3,3-Difluorocyclobutyl)methyl]-5-methyl-3-[(1S,2S)-2-methylcyclopropyl]-6-[(5-oxo-4,5-dihydro-1H-1,2,4-triazol-1-yl)methyl]thieno[2,3-d]pyrimidine-2,4(1H,3H)-dione]"
